Tests used:
Hela cells = assay: In vitro scratch wound healing assay; type: cell-based; settings: 24h
Protocol: Scratch wound healing assay creates a gap by scratching a confluent monolayer of cells to mimic a wound and then measures the ability of cells to fill up the gap (wound) in the presence of DMSO or test compounds. 1.2-1.5×10^5 Hela cells in 1 mL media RPMI-1640 with 10% FBS were seeded in 24-well plates. Cells were starved for overnight in the same media without FBS when cells became confluent. After starvation, a scratch was made in the middle of the well and the plates were washed three times to remove detached cells. DMSO or different concentrations of compounds were diluted and added to the cells. The assay plates were put into Incucyte S3 and scanned with 4× scanner setting regularly. The imaging results were exported and the wound area was analyzed by ImageJ. Wound healing or closure was calculated by the following formula: wound healing %=(wound area at 0h−wound area at 24h)/wound area 0h*100%. Relative wound healing was calculated by dividing wound healing % of compound treatment to that of DMSO*100%.

[1] = test system: NFκB-driven transcription in HeLa-NFκB luciferase reporter cell line; assay: NFκB luciferase reporter assay; settings: Homo sapiens, HeLa, 16 h, read-out: NFκB-luc HeLa cells EC50 (μM)
human PBMC cells = assay: Cytokine/chemokine gene expression in human PBMC (TaqMan); type: cell-based; settings: 4 h;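 on Gene Relative Expression CCL2: 2^-ΔΔCt fold change vs DMSO control normalized to 18S and GAPDH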;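 on Gene Relative Expression GM-CSF: 2^-ΔΔCt fold change vs DMSO control normalized to 18S and GAPDH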;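 on Gene Relative Expression IFN-α: 2^-ΔΔCt fold change vs DMSO control normalized to 18S and GAPDH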;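 on Gene Relative Expression IFNγ: 2^-ΔΔCt fold change vs DMSO control normalized to 18S and GAPDH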
Protocol: Each treatment condition was performed in duplicates.

Panc2.13 (Pancreatic) = assay: Proliferation of Panc2.13; type: cell-based
Outline: (§1)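 Panc2.13 was seeded at 3000 cells/well, KP-4 at 800-1000, HL-60 at 5000 and Namalwa at 5000-10000, then given 3-fold serial dilutions of compound with final DMSO ≤0.25% for 96 h at 37° C. CellTiter Glo luminescence was read and inhibition calculated against DMSO-only wells. IC50 was normalised to comparator K101.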

KP-4 (Pancreatic) = assay: Proliferation of KP-4; type: cell-based; settings: read-out: IC50 KP-4 (Pancreatic)
Outline: as §1

CC1=C[C@H]2[C@@]3(O)[C@H](C)C[C@]4(OC(=O)[C@@H](N)[C@]56C[C@H]7C[C@H](C[C@H](C7)C5)C6)[C@H]([C@@H]3C=C(CO)C[C@]2(O)C1=O)C4(C)C
Relative wound healing to control (%) (Hela cells; 3 nM): 191%
Relative wound healing to control (%) (Hela cells; 10 nM): 198%
Relative wound healing to control (%) (Hela cells; 30 nM): 272%
EC50 [1]: 0.001 to 0.01 µM
Gene Relative Expression CCL2 (human PBMC cells; 0.01 μM): 5.58
Gene Relative Expression GM-CSF (human PBMC cells; 0.01 μM): 1.59
Gene Relative Expression IFN-α (human PBMC cells; 0.01 μM): 0.78
Gene Relative Expression IFNγ (human PBMC cells; 0.01 μM): 1.69
Gene Relative Expression IL-1β (human PBMC cells; 0.01 μM): 0.59
Gene Relative Expression IL-2 (human PBMC cells; 0.01 μM): 3.06
Gene Relative Expression IL-4 (human PBMC cells; 0.01 μM): 0.84
Gene Relative Expression IL-6 (human PBMC cells; 0.01 μM): 1.17
Gene Relative Expression IL-8 (human PBMC cells; 0.01 μM): 0.71
Gene Relative Expression IL-10 (human PBMC cells; 0.01 μM): 1.12
Gene Relative Expression IL-12p40 (human PBMC cells; 0.01 μM): 0.89
Gene Relative Expression IL-12p70 (human PBMC cells; 0.01 μM): 1.03
Gene Relative Expression IL-13 (human PBMC cells; 0.01 μM): 3.10
Gene Relative Expression IL-18 (human PBMC cells; 0.01 μM): 0.26
Gene Relative Expression ISG15 (human PBMC cells; 0.01 μM): 1.01
Gene Relative Expression MIP1a (CCL3) (human PBMC cells; 0.01 μM): 1.65
Gene Relative Expression MX1 (human PBMC cells; 0.01 μM): 0.84
Gene Relative Expression OAS1 (human PBMC cells; 0.01 μM): 0.74
Gene Relative Expression TNF-α (human PBMC cells; 0.01 μM): 2.39
Gene Relative Expression CCL2 (human PBMC cells; 0.03 μM): 3.59
Gene Relative Expression GM-CSF (human PBMC cells; 0.03 μM): 8.38
Gene Relative Expression IFN-α (human PBMC cells; 0.03 μM): 0.46
Gene Relative Expression IFNγ (human PBMC cells; 0.03 μM): 3.82
Gene Relative Expression IL-1β (human PBMC cells; 0.03 μM): 2.26
Gene Relative Expression IL-2 (human PBMC cells; 0.03 μM): 7.78
Gene Relative Expression IL-4 (human PBMC cells; 0.03 μM): 2.54
Gene Relative Expression IL-6 (human PBMC cells; 0.03 μM): 0.86
Gene Relative Expression IL-8 (human PBMC cells; 0.03 μM): 0.54
Gene Relative Expression IL-10 (human PBMC cells; 0.03 μM): 0.41
Gene Relative Expression IL-12p40 (human PBMC cells; 0.03 μM): 0.32
Gene Relative Expression IL-12p70 (human PBMC cells; 0.03 μM): 0.87
Gene Relative Expression IL-13 (human PBMC cells; 0.03 μM): 52.65
Gene Relative Expression IL-18 (human PBMC cells; 0.03 μM): 0.06
Gene Relative Expression ISG15 (human PBMC cells; 0.03 μM): 1.33
Gene Relative Expression MIP1a (CCL3) (human PBMC cells; 0.03 μM): 2.82
Gene Relative Expression MX1 (human PBMC cells; 0.03 μM): 1.01
Gene Relative Expression OAS1 (human PBMC cells; 0.03 μM): 0.78
Gene Relative Expression TNF-α (human PBMC cells; 0.03 μM): 4.48
Gene Relative Expression CCL2 (human PBMC cells; 0.10 μM): 0.38
Gene Relative Expression GM-CSF (human PBMC cells; 0.10 μM): 16.06
Gene Relative Expression IFN-α (human PBMC cells; 0.10 μM): 0.31
Gene Relative Expression IFNγ (human PBMC cells; 0.10 μM): 18.08
Gene Relative Expression IL-1β (human PBMC cells; 0.10 μM): 3.00
Gene Relative Expression IL-2 (human PBMC cells; 0.10 μM): 3.29
Gene Relative Expression IL-4 (human PBMC cells; 0.10 μM): 2.77
Gene Relative Expression IL-6 (human PBMC cells; 0.10 μM): 6.72
Gene Relative Expression IL-8 (human PBMC cells; 0.10 μM): 0.60
Gene Relative Expression IL-10 (human PBMC cells; 0.10 μM): 0.09
Gene Relative Expression IL-12p40 (human PBMC cells; 0.10 μM): 0.22
Gene Relative Expression IL-12p70 (human PBMC cells; 0.10 μM): 0.76
Gene Relative Expression IL-13 (human PBMC cells; 0.10 μM): 101.38
Gene Relative Expression IL-18 (human PBMC cells; 0.10 μM): 0.06
Gene Relative Expression ISG15 (human PBMC cells; 0.10 μM): 1.54
Gene Relative Expression MIP1a (CCL3) (human PBMC cells; 0.10 μM): 5.73
Gene Relative Expression MX1 (human PBMC cells; 0.10 μM): 0.99
Gene Relative Expression OAS1 (human PBMC cells; 0.10 μM): 0.69
Gene Relative Expression TNF-α (human PBMC cells; 0.10 μM): 6.25
ratio (IC50 of K101)/(IC50 of compound) Panc2.13 (Panc2.13 (Pancreatic)): 71.7
IC50 (Panc2.13 (Pancreatic); read-out: IC50 Panc2.13 (Pancreatic)): 10 to 30 nM
IC50 (KP-4 (Pancreatic)): 1 to 10 nM

Reference: US20240197666A1, “DITERPENOID COMPOUNDS THAT ACT ON PROTEIN KINASE C (PKC)” (K-Gen Therapeutics, Inc., priority 2021, published 2024)
